In patent publication US7183252B2, “Indole peptidomimetics as thrombin receptor antagonists” (Ortho-McNeil Pharmaceutical, Inc., priority 1999, dated 2007) one finds IC50 data, which are given here for 27 compounds.

One test concerns gel-filtered platelets. The test is described as follows: In vitro inhibition of thrombin-induced gel-filtered platelet aggregation. The conditions noted are these: human gel-filtered platelets, agonist thrombin 50 μL of 1 unit/mL, read-out: Thrmb IC50 (Thrombin-induced aggregation of gel-filtered platelets). It is filed as cell-based. The protocol: In Vitro Inhibition of Thrombin-Induced Gel-Filtered Platelet Aggregation Assay
The percentage of platelet aggregation is calculated as an increase in light transmission of compound-treated platelet concentrate vs. control-treated platelet concentrate. Human blood is obtained from drug free, normal donors in tubes containing 0.13M sodium citrate. Platelet rich plasma (PRP) is collected by centrifugation of whole blood at 200×g for 10 min at 25° C. The PRP (5 mL) is gel filtered through Sepharose 2B (bed volume 50 mL), and the platelet count is adjusted to 2×10^7 platelets per sample. The following constituents are added to a siliconized cuvette: concentrated platelet filtrate and Tyrode's buffer (0.14M NaCl, 0.0027M KCl, 0.012M NaHCO3, 0.76 mM Na2HPO4, 0.0055M glucose, 2 mg/mL BSA and 5.0 mM HEPES @ pH 7.4) in an amount equal to 350 μL 50 μL of 20 mM calcium and 50 μL of the test compound. Aggregation is monitored in a BIODATA aggregometer for the 3 min following the addition of agonist (thrombin 50 μL of 1 unit/mL).
(§1) Table 7 contains IC50 values (μM) of the compounds in a thrombin receptor binding assay, and IC50 values (μM) against platelet aggregation stimulated by thrombin.

For test [1], the target named is T1, thrombin receptor (PAR-1) (Homo sapiens, UniProt P25116).
T1 construct: CHRF membranes (Jones, Biochim. Biophys. Acta 1992, 1136, 272) are thawed from −70° C; endogenous in cells; host or cells: CHRF cell membranes
T1 sequence (P25116 22-425): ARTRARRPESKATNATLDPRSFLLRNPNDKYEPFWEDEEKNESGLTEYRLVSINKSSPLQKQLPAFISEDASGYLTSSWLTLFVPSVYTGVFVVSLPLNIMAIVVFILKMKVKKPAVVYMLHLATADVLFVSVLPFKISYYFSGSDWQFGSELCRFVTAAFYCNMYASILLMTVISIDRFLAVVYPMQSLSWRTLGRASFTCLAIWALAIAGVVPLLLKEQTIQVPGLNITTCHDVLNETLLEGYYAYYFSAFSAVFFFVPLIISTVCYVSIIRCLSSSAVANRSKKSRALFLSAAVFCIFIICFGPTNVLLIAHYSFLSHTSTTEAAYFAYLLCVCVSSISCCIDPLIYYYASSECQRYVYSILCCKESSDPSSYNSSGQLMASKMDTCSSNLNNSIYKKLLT
The test is described as follows: In vitro thrombin receptor binding assay (CHRF membranes). As to conditions: tritiated 721-40 radioligand, read-out: Bndg IC50 (Thrombin receptor binding). As for the experimental part: In Vitro Thrombin Receptor Binding Assay
CHRF membranes (Jones, Biochim. Biophys. Acta 1992, 1136, 272) are thawed from −70° C., centrifuged at maximum speed for 5 min, washed twice with binding buffer (50 mM HEPES containing 5 mM MgCl2 and 0.1% BSA), and re-suspended in binding buffer (25 μg/[…]). 100 μL of membranes are added to the 24-Wallac plates and delivered to the Tomtech apparatus. In a typical experiment, 6 μL of samples (from a 125 μg/mL intermediary plate, 20% DMSO) and 44 μL buffer are delivered to the plates (final conc. of compounds is 3.7 μg/mL, 0.6% DMSO). Similarly, 6 μL 20% DMSO and 44 μL buffer are delivered to both column 1 (NSB) and column 12 (TB). 10 μL Ser-pFPhe-Har-Leu-Har-Lys-Tyr-NH2 (721–40; 500 μM in deionized water) is added to column 1. 50 μL tritiated 721–40 (specific activity 46 Ci/mmol) is added to all the wells. The plates are mixed well for 20 seconds, incubated for 30 min,and then harvested with 10 mM HEPES/138 mM NaCl using the Skatron harvester. The filters (GF/C Brandel FPXLR 296) are presoaked 3 h in 0.5% polyethylenimine in HEPES/0.1M N-acetylglucosamine) are set in saran wrap and dried for 3 min in the microwave, and placed in sample bags (Wallac 1450-432). 4.5 mL scintillation fluid (Wallac, Betaplate Scint 1205-440) is added. The bags are sealed, placed in filter cassettes (Wallac 1450-104), and analyzed on the microbeta counter.
as §1

pIC50: −log10 of the molar value. Like-named read-outs stand apart in the source and are kept apart here.

In general, pIC50 refers to the IC50 on a negative log10 scale, so that one unit is a factor of ten. Regarding `N=C(N)NCCC[C@H](NC(=O)[C@H](Cc1cccs1)NC(=O)Nc1ccc2c(CN3CCCC3)cn(Cc3ccc(F)cc3)c2c1)C(=O)NCc1ccccc1` [Compound 28], the results for the pIC50 (in the test on gel-filtered platelets (Platelet); in test [1]) were 4.86 and 5.39, respectively.
Taken in the same sequence, the figures for `Cc1ccccc1Cn1cc(CN2CCCC2)c2ccc(NC(=O)N[C@H](C(=O)N[C@@H](CCCNC(=N)N)C(=O)NCc3ccccc3)c3ccccc3)cc21` [Compound 29] were under 5.00 and 5.08.
The corresponding values for `N=C(N)NCCC[C@H](NC(=O)[C@@H]1Cc2ccccc2CN1C(=O)Nc1ccc2c(CN3CCCC3)cn(Cc3ccc(F)cc3)c2c1)C(=O)NCc1ccccc1` [Compound 30] are under 5.00 and 5.05.
Taken in the same sequence, the figures for `Cc1ccccc1Cn1cc(CN2CCCC2)c2ccc(NC(=O)N[C@@H](Cc3cccnc3)C(=O)N[C@@H](CCCNC(=N)N)C(=O)NCc3ccccc3)cc21` [Compound 31] were under 5.00 and 5.08.
For the compound `COc1ccc(C[C@H](NC(=O)Nc2ccc3c(CN(C)CCCN(C)C)cn(Cc4ccc(F)cc4)c3c2)C(=O)N[C@@H](CCCNC(=N)N)C(=O)NCc2ccccc2)cc1` [Compound 32], the pIC50 with gel-filtered platelets (Platelet) was 4.31; in test [1] it was 5.14.
The corresponding values for `COc1ccc(C[C@H](NC(=O)Nc2ccc3c(CNCCCN4CCCC4)cn(Cc4ccc(F)cc4)c3c2)C(=O)N[C@@H](CCCNC(=N)N)C(=O)NCc2ccccc2)cc1` [Compound 33] are 4.26 and 5.27.
With `C=CCOc1ccc(C[C@H](NC(=O)Nc2ccc3c(CN4CCCC4)cn(Cc4cccc(C)c4)c3c2)C(=O)N[C@@H](CCCNC(=N)N)C(=O)NCc2ccccc2)cc1` [Compound 34], the results for the pIC50 (with gel-filtered platelets (Platelet); in test [1]) were 4.79 and 5.01, respectively.
Taken in the same sequence, the figures for `CCN(CC)Cc1cn(Cc2ccccc2C)c2cc(NC(=O)N[C@@H](Cc3ccc(N)cc3)C(=O)N[C@@H](CCCNC(=N)N)C(=O)NCc3ccccc3)ccc12` [Compound 35] were 4.89 and 4.88.
Taken in the same sequence, the figures for `Cc1ccccc1Cn1cc(CN2CCCC2)c2ccc(NC(=O)N[C@@H](Cc3ccc(OCc4ccccc4)cc3)C(=O)N[C@@H](CCCN=C(N)N)C(=O)NCc3ccccc3)cc21` [Compound 36] were 5.17 and 4.78.
Taken in the same sequence, the figures for `Cc1ccccc1Cn1cc(CN2CCCC2)c2ccc(NC(=O)N[C@@H](Cc3cccc4ccccc34)C(=O)N[C@@H](CCCNC(=N)N)C(=O)NCc3ccccc3)cc21` [Compound 37] were 5.36 and 4.69.
Consider `N=C(N)NCCC[C@H](NC(=O)[C@H](Cc1ccc2ccccc2c1)NC(=O)Nc1ccc2c(CN3CCCC3)cn(Cc3c(Cl)cccc3Cl)c2c1)C(=O)NCc1ccccc1` [Compound 38], for which the pIC50 in the test with gel-filtered platelets (Platelet) is 5.60; in test [1], 4.47.
Turning to `Cc1ccccc1Cn1cc(CN2CCCC2)c2ccc(NC(=O)N[C@@H](Cc3ccc(-c4ccccc4)cc3)C(=O)N[C@@H](CCCNC(=N)N)C(=O)NCc3ccccc3)cc21` [Compound 39], the pIC50 in the test with gel-filtered platelets (Platelet) is 5.46; in test [1], 4.67.
The corresponding values for `COc1ccc(C[C@H](NC(=O)Nc2ccc3c(CN4CCOCC4)cn(Cc4ccc(F)cc4)c3c2)C(=O)N[C@@H](CCCN=C(N)N)C(=O)NCc2ccccc2)cc1` [Compound 40] are under 5.00 and 5.41.
Taken in the same sequence, the figures for `CCCN(CCC)Cc1cn(Cc2c(Cl)cccc2Cl)c2cc(NC(=O)N[C@@H](Cc3ccc(OC)cc3)C(=O)N[C@@H](CCCNC(=N)N)C(=O)NCc3ccccc3)ccc12` [Compound 41] were 5.32 and 4.98.
Taken in the same sequence, the figures for `CCOc1ccc(C[C@H](NC(=O)Nc2ccc3c(CN4CCCC4)cn(Cc4cccc(C)c4)c3c2)C(=O)N[C@@H](CCCNC(=N)N)C(=O)NCc2ccccc2)cc1` [Compound 42] were 4.61 and 5.70.
In the case of `CCN(CC)Cc1cn(Cc2cccc(C)c2)c2cc(NC(=O)N[C@@H](Cc3ccc(OC(C)C)cc3)C(=O)N[C@@H](CCCNC(=N)N)C(=O)NCc3ccccc3)ccc12` [Compound 43], the pIC50 with gel-filtered platelets (Platelet) was 4.47; in test [1] it was 5.30.
Taken in the same sequence, the figures for `COc1ccc(C[C@H](NC(=O)Nc2ccc3c(CN4CCC4)cn(Cc4ccc(F)cc4)c3c2)C(=O)N[C@@H](CCCNC(=N)N)C(=O)NCc2ccccc2)cc1` [Compound 44] were 5.01 and 5.48.
The corresponding values for `COc1ccc(C[C@H](NC(=O)Nc2ccc3c(CNC4CC4)cn(Cc4ccc(F)cc4)c3c2)C(=O)N[C@@H](CCCNC(=N)N)C(=O)NCc2ccccc2)cc1` [Compound 45] are under 5.00 and 4.86.
Turning to `N=C(N)NCCC[C@H](NC(=O)[C@H](Cc1ccc(F)c(F)c1)NC(=O)Nc1ccc2c(CN3CCCC3)cn(Cc3c(Cl)cccc3Cl)c2c1)C(=O)NCc1ccccc1` [Compound 46, L-Argininamide, 3,4-difluoro-N-[[[1-[(2,6-dichlorophenyl)methyl]-3-(1-pyrrolidinylmethyl)-1H-indol-6-yl]amino]carbonyl]-L-phenylalanyl-N-(phenylmethyl)-], the pIC50 in the test with gel-filtered platelets was 6.55; in test [1], 6.33.
In the case of `N=C(N)NCCC[C@H](NC(=O)[C@H](Cc1cccc(F)c1)NC(=O)Nc1ccc2c(CN3CCCC3)cn(Cc3c(Cl)cccc3Cl)c2c1)C(=O)NCc1ccccc1` [Compound 47], the pIC50 is 6.06 in the test on gel-filtered platelets (Platelet) and 5.92 in test [1].
The corresponding values for `Cc1ccccc1Cn1cc(CN2CCCC2)c2ccc(NC(=O)N[C@@H](Cc3ccc(Cl)cc3)C(=O)N[C@@H](CCCNC(=N)N)C(=O)NCc3ccccc3)cc21` [Compound 48] are 6.30 and 5.12.
The corresponding values for `N=C(N)NCCC[C@H](NC(=O)[C@H](Cc1ccc([N+](=O)[O-])cc1)NC(=O)Nc1ccc2c(CN3CCCC3)cn(Cc3ccc(F)cc3)c2c1)C(=O)NCc1ccccc1` [Compound 49] are 5.21 and 6.00.
Taken in the same sequence, the figures for `Cc1ccccc1Cn1cc(CN2CCCC2)c2ccc(NC(=O)N[C@@H](Cc3c(F)c(F)c(F)c(F)c3F)C(=O)N[C@@H](CCCNC(=N)N)C(=O)NCc3ccccc3)cc21` [Compound 50] were 6.10 and 5.12.
For the compound `N=C(N)NCCC[C@H](NC(=O)[C@H](Cc1ccccc1F)NC(=O)Nc1ccc2c(CN3CCCC3)cn(Cc3c(Cl)cccc3Cl)c2c1)C(=O)NCc1ccccc1` [Compound 51], the pIC50 is 6.17 in the test on gel-filtered platelets (Platelet) and 6.10 in test [1].
Taken in the same sequence, the figures for `N#Cc1ccc(C[C@H](NC(=O)Nc2ccc3c(CN4CCCC4)cn(Cc4c(Cl)cccc4Cl)c3c2)C(=O)N[C@@H](CCCNC(=N)N)C(=O)NCc2ccccc2)cc1` [Compound 52] were 6.32 and 5.28.
The corresponding values for `N=C(N)NCCC[C@H](NC(=O)[C@H](Cc1cscn1)NC(=O)Nc1ccc2c(CN3CCCC3)cn(Cc3c(Cl)cccc3Cl)c2c1)C(=O)NCc1ccccc1` [Compound 53] are 6.00 and 5.06.
In the case of `Cc1ccccc1Cn1cc(CN2CCCC2)c2ccc(NC(=O)N[C@@H](Cc3cccc(C(F)(F)F)c3)C(=O)N[C@@H](CCCNC(=N)N)C(=O)NCc3ccccc3)cc21` [Compound 54], the figures for the negative logarithm of the IC50 (pIC50) (with gel-filtered platelets (Platelet); in test [1]) were 6.30 and 4.80, respectively.
